The record followed here is publication PMC2613953, “Characterisation of ATP analogues to cross-link and label P2X receptors” (Neuropharmacology, 2009).

What all share (assay type): cell-based
Experiment [1] addresses T1, P2X3 receptor (Rattus norvegicus, UniProt P49654).
T1 construct: gene P2rx3; rat P2X3 transiently expressed in HEK293 cells
T1 sequence (P49654 1-397): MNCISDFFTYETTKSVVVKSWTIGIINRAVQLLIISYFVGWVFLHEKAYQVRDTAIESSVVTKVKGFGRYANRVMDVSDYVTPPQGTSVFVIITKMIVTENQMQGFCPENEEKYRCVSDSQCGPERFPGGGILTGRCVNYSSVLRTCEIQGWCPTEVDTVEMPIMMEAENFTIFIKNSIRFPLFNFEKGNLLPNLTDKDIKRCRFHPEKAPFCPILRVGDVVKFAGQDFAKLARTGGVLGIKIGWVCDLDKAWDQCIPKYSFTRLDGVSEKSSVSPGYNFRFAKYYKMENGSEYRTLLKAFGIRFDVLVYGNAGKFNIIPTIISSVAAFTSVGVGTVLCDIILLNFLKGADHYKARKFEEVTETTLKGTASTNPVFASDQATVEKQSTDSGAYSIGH
Put plainly: UV photo-cross-linking, then whole cell patch clamp ([…] reduction of ATP current).

The target of a further experiment is T2, P2X4 receptor (Homo sapiens, UniProt Q99571).
T2 construct: gene P2RX4; human P2X4 receptor stably expressed in HEK293 cells
T2 sequence (Q99571 1-388): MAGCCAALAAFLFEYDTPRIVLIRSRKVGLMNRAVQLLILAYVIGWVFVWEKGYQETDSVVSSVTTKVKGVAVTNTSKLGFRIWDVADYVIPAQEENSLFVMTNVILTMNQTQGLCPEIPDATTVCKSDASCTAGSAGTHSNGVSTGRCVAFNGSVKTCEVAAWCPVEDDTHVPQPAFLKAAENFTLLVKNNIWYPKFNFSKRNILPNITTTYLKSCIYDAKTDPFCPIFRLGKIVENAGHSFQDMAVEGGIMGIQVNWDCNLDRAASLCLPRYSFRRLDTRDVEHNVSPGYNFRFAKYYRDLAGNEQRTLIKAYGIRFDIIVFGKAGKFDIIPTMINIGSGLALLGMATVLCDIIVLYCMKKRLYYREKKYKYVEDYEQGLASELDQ
The experiment is described as above.

For experiment [2], the target named is T3, P2X1 receptor (Homo sapiens, UniProt P51575).
T3 construct: gene P2RX1; human P2X1 receptor stably expressed in HEK293 cells
T3 sequence (P51575 1-399): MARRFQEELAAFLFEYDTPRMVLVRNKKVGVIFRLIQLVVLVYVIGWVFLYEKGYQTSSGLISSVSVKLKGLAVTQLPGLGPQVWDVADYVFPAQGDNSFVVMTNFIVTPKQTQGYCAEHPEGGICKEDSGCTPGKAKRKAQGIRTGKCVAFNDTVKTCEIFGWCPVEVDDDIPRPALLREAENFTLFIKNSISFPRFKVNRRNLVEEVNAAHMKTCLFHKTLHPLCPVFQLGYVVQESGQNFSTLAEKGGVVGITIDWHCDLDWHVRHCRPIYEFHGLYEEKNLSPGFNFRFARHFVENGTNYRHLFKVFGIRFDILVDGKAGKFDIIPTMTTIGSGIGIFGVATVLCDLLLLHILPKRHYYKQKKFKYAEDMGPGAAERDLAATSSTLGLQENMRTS
Put plainly: UV photo-cross-linking of radiolabelled analogue, immunoprecipitation and autoradiography with ATP competition; patch clamp agonism. An excerpt: UV photo-cross-linking of radiolabelled analogue, immunoprecipitation and autoradiography with ATP competition; patch clamp agonism on P2X1 receptor | It confirms the identification of 2-azido ATP as a cross-linking compound which directly binds to the P2X1 receptor.

Experiment [3] has as its target T4, P2X2 receptor (Rattus norvegicus, UniProt P49653).
T4 construct: gene P2rx2; rat P2X2 transiently expressed in HEK293 cells
T4 sequence (P49653 1-472): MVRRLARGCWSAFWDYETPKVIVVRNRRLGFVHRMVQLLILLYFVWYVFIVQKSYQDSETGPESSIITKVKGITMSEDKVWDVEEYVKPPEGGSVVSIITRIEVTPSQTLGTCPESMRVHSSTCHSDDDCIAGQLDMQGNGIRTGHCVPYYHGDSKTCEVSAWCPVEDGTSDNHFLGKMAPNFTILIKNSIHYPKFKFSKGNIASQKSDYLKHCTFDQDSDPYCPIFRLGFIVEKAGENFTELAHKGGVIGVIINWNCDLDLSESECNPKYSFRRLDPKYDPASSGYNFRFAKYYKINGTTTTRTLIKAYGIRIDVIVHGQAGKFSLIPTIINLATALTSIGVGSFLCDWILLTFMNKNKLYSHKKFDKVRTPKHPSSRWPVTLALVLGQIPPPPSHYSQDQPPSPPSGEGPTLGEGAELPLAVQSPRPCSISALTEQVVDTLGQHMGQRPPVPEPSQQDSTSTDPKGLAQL
Put plainly: UV photo-cross-linking, then whole cell patch clamp ([…] reduction of ATP current).

Experiment [4] addresses T4, P2X2 receptor. In words: whole cell patch clamp, agonist current at approximate EC50 concentration.
Experiment [5] deals with T1, P2X3 receptor. Described as above.
Experiment [6] concerns the target T3, P2X1 receptor. In words: competition with radiolabelled photo-reactive ATP analogues; whole cell patch clamp agonism.
In experiment [7] the target is T3, P2X1 receptor. In words: whole cell patch clamp; partial agonist; UV cross-linking with ATP/suramin protection.

Consider `[N-]=[N+]=Nc1nc(N)c2ncn([C@@H]3O[C@H](COP(=O)(O)OP(=O)(O)OP(=O)(O)O)[C@@H](O)[C@H]3O)c2n1` [A, 2-azido ATP], for which the “% reduction” value was determined as 83 % reduction at P2X3 receptor [1], 45 % reduction at P2X4 receptor and 80 % reduction at P2X2 receptor [3]. At P2X1 receptor [2], the EC50 was around 3 µM.
For the compound `Nc1ncnc2c1ncn2[C@@H]1O[C@H](COP(=O)(O)OP(=O)(O)OP(=O)(O)O)[C@@H](O)[C@H]1O` [ATP], the concentration for a half-maximal effect (EC50) on P2X2 receptor [4] was ~ 10 μM; on P2X3 receptor [5], ~ 1 μM; on P2X1 receptor [6], around 1000 nM.
For `Nc1ncnc2c1ncn2[C@@H]1O[C@H](COP(=O)(O)OP(=O)(O)OP(=O)(O)O)[C@@H](OC(=O)c2ccc(C(=O)c3ccccc3)cc2)[C@H]1O` [C, 2′,3′-O-(4-benzoylbenzoyl)-ATP], the “whole cell patch clamp; partial agonist; UV cross-linking with ATP/suramin prote” value on P2X1 receptor [7] is given as “These results suggest that the BzATP is acting to cross-link to the P2X1 receptor at the ATP binding site”.
